≈ marks a conversion by molar mass, not a printed value. Square brackets hold non-standard residues; d marks the D form. Ends that are not written are not given here. Peptide text beside a SMILES is read from it.
Experiments:
Format in all cases: cell-based
[1] = system: Enterococcus faecalis CIP 103015; assay: MIC/MBC (Example 10, MH medium); conditions: Table 5; E. faecalis CIP 103015
Experimental: (§1) The MIC is determined using a growth inhibition test in liquid medium. The MIC is defined as being the lowest peptide concentration capable of inhibiting the bacterial strain tested, after incubation for 18 h at 37° C. The test was carried out in a sterile microtitration plate containing 96 wells. A series of increasing concentrations of each peptide (0.2 to 100 µM) was prepared beforehand in sterile MilliQ water. In each well, 10 µL of peptide was incubated with 90 µL of bacterial suspension (10^7 cfu/mL) in yeast extract-free LB medium. The microplate was incubated at 37° C. for 18 h. The bacterial growth was evaluated by measuring the OD at 620 nm using a plate reader.
(§2) The negative growth inhibition control was obtained by replacing the solution containing the peptide by sterile MilliQ water. The positive control suitable for completely inhibiting the growth of the bacterial strains was obtained by replacing the solution containing the peptide by 10 µL of formaldehyde.
(§3) The results are interpreted by calculating the percentage of bacterial growth in each well according to the formula:
(§4) %Growth = (OD well - OD of T0)/(OD of T100-OD of T0)*100 where
(§5) • OD of T100 = OD of growth control (bacterial suspension free from sample under test, 100% growth), • OD of T0 = OD of sterility control (culture medium + bacterium + 10 µL formaldehyde, 0% growth) and • OD well = OD of well for which it is sought to calculate the growth percentage (bacterial suspension + peptide under test).
(§6) The MBC is defined as being the minimum peptide concentration leaving no surviving bacteria of the inoculum after incubation at 37° C. for 24 hours. This test consists of smearing the contents of the well wherein the peptide has inhibited bacterial growth on a Petri dish (LB agar), followed by incubation for 24 h at 37° C.
(§7) A 10 mL preculture in Muller-Hinton (MH) medium is prepared by inoculating a colony of the bacterial strain of interest. The preculture is incubated at 37° C. under stirring overnight. The culture is subcultured to 1:100 under the same conditions. The culture concentration is evaluated by measuring the turbidity at 600 nm (OD600 nm 1.0 = 5 × 10^8 CFU/mL for E. coli (Gram-negative bacteria) and 1.5 × 10^8 CFU/mL for S. aureus (Gram-positive bacteria). Once the exponential growth phase (OD600 nm = 0.3 - 0.7) has been achieved, the cultures are diluted in MH medium so as to obtain 10^6 CFU/mL (final inoculum concentration).
(§8) The MIC and the MBC were determined as per the protocol described in part 2.1 of Example 2.

[2] = system: Pseudomonas aeruginosa ATCC 9027; assay: MIC/MBC (Example 10, MH medium); conditions: Table 5; P. aeruginosa ATCC 9027
Experimental: as §1, §2, §3, §4, §5, §6, §7, §8

[3] = system: Staphylococcus aureus ATCC 6538; assay: MIC/MBC (Example 10, MH medium); conditions: Table 5; S. aureus ATCC 6538
Experimental: as §1, §2, §3, §4, §5, §6, §7, §8

[4] = system: Escherichia coli ATCC 8739; assay: MIC/MBC (Example 10, MH medium); conditions: Table 5; E. coli ATCC 8739
Experimental: as §1, §2, §3, §4, §5, §6, §7, §8

[5] = system: immune cells obtained from mouse bone marrow; assay: Cytotoxic effects on immune cells obtained from mouse bone marrow; conditions: 12.5 µM; 2 hours
Experimental: (§9) The mouse immune cells are obtained from C57BL/6 or Balb/c mouse bone marrow. The peptides are incubated at 37° C., 5% CO2 in the presence of 500,000 immune cells in RPMI medium at varied concentrations for 2 hours. Peptide-free cells are used as the negative control and cells in the presence of DMSO (30%) are used as the positive control. After incubation, the cells are washed then labelled with Trypan blue so as to measure the cell viability by microscope counting. The LC50 is then calculated as being the concentration of DA2N, K12A and DANa peptides inducing the death of 50% of the immune cells.

[6] = as above; conditions: mouse immune cells originating from bone marrow, read-out: LC50
Experimental: as §9

Compound | MBC [1] | MIC [1] | MBC [2] | MIC [2] | MBC [3] | MIC [3] | MBC [4] | MIC [4] | death of immune cells [5] | CC50 at 2 hours [6]
CSCC[C@@H](NC(=O)[C@@H](CC(N)=O)NC(=O)[C@H](NC(=O)[C@H](NC(=O)[C@@H](C)NC(=O)[C@@H](CC(N)=O)NC(=O)[C@@H](CC(C)C)NC(=O)[C@H](NC(=O)[C@@H](C)NC(=O)[C@@H](CCCCN)NC(=O)CNC(=O)[C@@H](C)NC(=O)[C@H](NC(=O)[C@@H](CCCCN)NC(=O)CNC(=O)[C@H](NC(=O)[C@@H](CCCCN)NC(=O)[C@@H](CCCCN)NC(=O)[C@@H](CC(C)C)NC(=O)[C@@H](CC(C)C)NC(=O)[C@H](NC(=O)[C@@H](CCCCN)NC(=O)[C@@H](Cc1c[nH]c2ccccc12)NC(=O)[C@@H](CC(C)C)NC(=O)[C@@H](C)N)[C@H](C)O)C(C)C)C(C)C)C(C)C)C(C)C)[C@H](C)O)C(=O)N[C@H](C)C(=O)N[C@H](CC(N)=O)C(=O)N[C@H](CCC(N)=O)C(=O)N[C@H](CC(N)=O)C(=O)O [DA2N (D), dAdLdWdKdTdLdLdKddKdVdGdKdVdAdGdKdAdVdLdNdAdVdTdNdMdAdNdQdN] (H-[dA][dL][dW][dK][dT][dL][dL][dK][dK][dV]G[dK][dV][dA]G[dK][dA][dV][dL][dN][dA][dV][dT][dN][dM][dA][dN][dQ][dN]-OH; N-terminus and C-terminus assumed) | 3.1 µM (≈ 9.55 µg/mL) | 3.1 µM (≈ 9.55 µg/mL) | 0.8 µM (≈ 2.47 µg/mL) | 0.8 µM (≈ 2.47 µg/mL) | 0.8 µM (≈ 2.47 µg/mL) | 0.8 µM (≈ 2.47 µg/mL) | 0.8 µM (≈ 2.47 µg/mL) | 0.4 µM (≈ 1.23 µg/mL) | induce the death of immune cells at a concentration of 12.5 µM with a comparable efficacy to DA2N | –
CSCC[C@@H](NC(=O)[C@@H](CC(N)=O)NC(=O)[C@H](NC(=O)[C@H](NC(=O)[C@@H](C)NC(=O)[C@@H](CC(N)=O)NC(=O)[C@@H](CC(C)C)NC(=O)[C@H](NC(=O)[C@@H](C)NC(=O)[C@@H](CCCCN)NC(=O)CNC(=O)[C@@H](C)NC(=O)[C@H](NC(=O)[C@@H](CCCCN)NC(=O)CNC(=O)[C@H](NC(=O)[C@@H](CCCCN)NC(=O)[C@@H](CCCCN)NC(=O)[C@@H](CC(C)C)NC(=O)[C@@H](CC(C)C)NC(=O)[C@H](NC(=O)[C@@H](CCCCN)NC(=O)[C@@H](Cc1c[nH]c2ccccc12)NC(=O)[C@@H](CC(C)C)NC(=O)[C@@H](C)N)[C@H](C)O)C(C)C)C(C)C)C(C)C)C(C)C)[C@H](C)O)C(=O)N[C@H](C)C(=O)N[C@H](CC(N)=O)C(=O)N[C@H](CCC(N)=O)C(=O)N[C@H](CC(N)=O)C(=O)N[C@H](CCC(=O)O)C(=O)N[C@H](CCC(N)=O)C(=O)O [DA2NEQ (D), dAdLdWdKdTdLdLdKdKdVdGdKdVdAdGdKdAdVdLdNdAdVdTdNdMdAdNdQdNdEdQ] (H-[dA][dL][dW][dK][dT][dL][dL][dK][dK][dV]G[dK][dV][dA]G[dK][dA][dV][dL][dN][dA][dV][dT][dN][dM][dA][dN][dQ][dN][dE][dQ]-OH; N-terminus and C-terminus assumed) | 12.5 µM (≈ 41.7 µg/mL) | 12.5 µM (≈ 41.7 µg/mL) | 3.1 µM (≈ 10.4 µg/mL) | 1.6 µM (≈ 5.34 µg/mL) | 1.6 µM (≈ 5.34 µg/mL) | 1.6 µM (≈ 5.34 µg/mL) | 0.8 µM (≈ 2.67 µg/mL) | 0.8 µM (≈ 2.67 µg/mL) | – | –
ALWDTLLKKVGKVAGKAVLNAVTNMANQN [K4D] | 50 µM | 50 µM | 25 µM | 25 µM | 12.5 µM | 12.5 µM | 12.5 µM | 12.5 µM | – | –
ALWKTLAKKVGKVAGKAVLNAVTNMANQN [L7A] | 6.3 µM | 6.3 µM | 1.6 µM | 1.6 µM | 3.1 µM | 3.1 µM | 0.8 µM | 0.8 µM | – | –
ALWKTLLKKVGAVAGKAVLNAVTNMANQN [K12A] | 12.5 µM | 12.5 µM | 6.3 µM | 6.3 µM | 6.3 µM | 3.1 µM | 1.6 µM | 1.6 µM | – | 6.5 µM
ALWKTLLKKVGKAAGKAVLNAVTNMANQN [V13A] | 50 µM | 50 µM | 6.3 µM | 6.3 µM | 12.5 µM | 6.3 µM | 1.6 µM | 1.6 µM | – | –
ALWKTLLKKVGKVAGKAVLNAVTNAANQN [M25A] | 12.5 µM | 12.5 µM | 3.1 µM | 3.1 µM | 3.1 µM | 3.1 µM | 0.8 µM | 0.8 µM | – | –
ALWKTLLKKVGKVAGKAVLNAVTNMANQN-NH2 [DA2Na] | 3.1 µM | 3.1 µM | 1.6 µM | 1.6 µM | 1.6 µM | 0.8 µM | 0.8 µM | 0.8 µM | – | 3.75 µM
ALWKTLLKKVGKVAGKAVLNAVTNMANQNE-OH [DA2NE] | 50 µM | 12.5 µM | 3.1 µM | 3.1 µM | 12.5 µM | 3.1 µM | 1.6 µM | 0.8 µM | induce the death of immune cells at a concentration of 12.5 µM with a comparable efficacy to DA2N | –
ALWKTLLKKVGKVDGKAVLNAVTNMANQN [A14D] | >50 µM | >50 µM | >50 µM | 50 µM | >50 µM | >50 µM | 6.3 µM | 6.3 µM | – | –
ALWKTLLKKVGKVKGKAVLNAVTNMANQN [A14K] | >50 µM | >50 µM | 12.5 µM | 12.5 µM | 50 µM | 25 µM | 1.6 µM | 1.6 µM | – | –
ALWKTLLKKVGPVAGKAVLNAVTNMANQN [K12P] | >50 µM | >50 µM | 12.5 µM | 12.5 µM | 6.3 µM | 6.3 µM | 6.3 µM | 6.3 µM | – | –
Gramicidin [reference compound] | 0.8 µM | 0.8 µM | >100 µM | >100 µM | >50 µM | >50 µM | >100 µM | >100 µM | – | –

Source: US20230192772A1, “ANTIMICROBIAL PEPTIDES AND USES THEREOF” (SORBONNE UNIVERSITE, priority 2016, published 2023)
